Assays:
Assay in all cases: relative viability (nuclei count vs DMSO), 5 days (fraction); higher = more cells survive
FH535 + Crizotinib = compound: CC1=C(C=CC(=C1)[N+](=O)[O-])NS(=O)(=O)C2=C(C=CC(=C2)Cl)Cl [FH535] + C[C@@H](Oc1cc(-c2cnn(C3CCNCC3)c2)cnc1N)c1c(Cl)ccc(F)c1Cl [Crizotinib] (partner 1 µM)
How it was run: (§1)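 A single step with final 0.05% Triton X-100, 1% formaldehyde and 1 ug/ml Hoechst fixed the cells and stained nuclei 5 days after treatment. Lung cancer cell lines in 1536-well plates had been treated by pin tool the day after seeding with one drug alone or a fixed anchor-drug dose plus five library-drug doses (not always all listed) in √10 steps, and nuclei were counted on 4× images. Relative viability is the ratio of nuclei in treated wells to nuclei in vehicle wells, taken as the median of duplicate plates.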

FH535 + Alpelisib = compound: CC1=C(C=CC(=C1)[N+](=O)[O-])NS(=O)(=O)C2=C(C=CC(=C2)Cl)Cl [FH535] + Cc1nc(NC(=O)N2CCC[C@H]2C(N)=O)sc1-c1ccnc(C(C)(C)C(F)(F)F)c1 [Alpelisib] (partner 2 µM)
How it was run: as §1

FH535 + Phenformin = compound: CC1=C(C=CC(=C1)[N+](=O)[O-])NS(=O)(=O)C2=C(C=CC(=C2)Cl)Cl [FH535] + N=C(N)NC(=N)NCCc1ccccc1 [Phenformin] (partner 250 µM)
How it was run: as §1

FH535 + Foretinib = compound: CC1=C(C=CC(=C1)[N+](=O)[O-])NS(=O)(=O)C2=C(C=CC(=C2)Cl)Cl [FH535] + COc1cc2c(Oc3ccc(NC(=O)C4(C(=O)Nc5ccc(F)cc5)CC4)cc3F)ccnc2cc1OCCCN1CCOCC1 [Foretinib] (partner 0.25 µM)
How it was run: as §1

FH535 + OSI-027 = compound: CC1=C(C=CC(=C1)[N+](=O)[O-])NS(=O)(=O)C2=C(C=CC(=C2)Cl)Cl [FH535] + COc1cccc2cc(-c3nc([C@H]4CC[C@H](C(=O)O)CC4)n4ncnc(N)c34)[nH]c12 [OSI-027] (partner 0.5 µM)
How it was run: as §1

| Cell Line | relative viability (FH535 + Crizotinib; first compound 0.1265 µM) | relative viability (FH535 + Crizotinib; first compound 0.4 µM) | relative viability (FH535 + Crizotinib; first compound 1.265 µM) | relative viability (FH535 + Alpelisib; first compound 0.1265 µM) | relative viability (FH535 + Alpelisib; first compound 0.4 µM) | relative viability (FH535 + Alpelisib; first compound 1.265 µM) | relative viability (FH535 + Phenformin; first compound 0.04 µM) | relative viability (FH535 + Phenformin; first compound 0.1265 µM) | relative viability (FH535 + Phenformin; first compound 0.4 µM) | relative viability (FH535 + Phenformin; first compound 1.265 µM) | relative viability (FH535 + Foretinib; first compound 0.04 µM) | relative viability (FH535 + Foretinib; first compound 0.1265 µM) | relative viability (FH535 + Foretinib; first compound 0.4 µM) | relative viability (FH535 + Foretinib; first compound 1.265 µM) | relative viability (FH535 + OSI-027; first compound 0.04 µM) | relative viability (FH535 + OSI-027; first compound 0.1265 µM) | relative viability (FH535 + OSI-027; first compound 0.4 µM) | relative viability (FH535 + OSI-027; first compound 1.265 µM) | relative viability (FH535 + Crizotinib; first compound 0.04 µM) | relative viability (FH535 + Alpelisib; first compound 0.04 µM) |
| --- | --- | --- | --- | --- | --- | --- | --- | --- | --- | --- | --- | --- | --- | --- | --- | --- | --- | --- | --- | --- |
| NCI-H23 | 0.555 | 0.584 | 0.581 | 0.761 | 0.636 | 0.631 | 0.786 | 0.739 | 0.655 | 0.555 | 0.469 | 1.07 | 0.953 | 0.636 | 0.408 | 0.471 | 0.642 | 0.546 | – | – |
| NCI-H322M | 0.906 | 1.03 | 1.04 | 0.783 | 0.83 | 0.761 | 0.813 | 0.844 | 0.707 | 0.601 | 0.966 | 1 | 0.961 | 0.882 | 0.543 | 0.54 | 0.577 | 0.394 | 0.819 | 0.722 |
| NCI-H358 | 0.576 | 0.582 | 0.542 | 0.929 | 0.84 | 0.643 | 0.256 | 0.327 | 0.265 | 0.153 | 0.647 | 0.727 | 0.63 | 0.481 | 0.737 | 0.536 | 0.648 | 0.476 | 0.482 | 0.919 |
| NCI-H441 | 0.797 | 0.768 | 0.628 | 0.638 | 0.686 | 0.605 | 0.316 | 0.829 | 0.709 | 0.512 | 0.959 | 0.97 | 1.08 | 0.801 | 0.529 | 0.559 | 0.508 | 0.527 | 0.603 | 0.529 |
| NCI-H460 | 0.991 | 1.08 | 0.652 | 0.601 | 0.51 | 0.449 | 0.517 | 0.535 | 0.399 | 0.244 | 1.05 | 1.05 | 0.937 | 0.654 | 0.612 | 0.754 | 0.542 | 0.375 | 1.04 | 0.388 |
| NCI-H520 | 0.893 | 0.803 | 0.754 | 0.931 | 0.952 | 0.799 | 0.36 | 0.611 | 0.55 | 0.429 | 0.684 | 0.781 | 0.574 | 0.875 | 0.199 | 0.286 | 0.296 | 0.192 | 0.716 | 0.825 |
| NCI-H596 | 1.02 | 1.08 | 0.929 | 0.487 | 0.481 | 0.487 | 0.794 | 0.623 | 0.614 | 0.69 | 0.833 | 0.899 | 0.852 | 0.819 | 0.697 | 0.551 | 0.55 | 0.652 | 1.02 | 0.527 |
| NCI-H647 | 1.02 | 1.1 | 0.895 | 1.41 | 1.14 | 0.935 | 0.524 | 0.508 | 0.431 | 0.42 | 1.14 | 1.22 | 1.13 | 1.14 | 0.486 | 0.809 | 0.673 | 0.543 | 1.26 | 1.18 |
| NCI-H650 | 0.854 | 0.738 | 0.567 | 1.06 | 1.12 | 0.774 | 0.411 | 0.417 | 0.388 | 0.289 | 0.927 | 1.05 | 1.01 | 0.788 | 0.465 | 0.515 | 0.433 | 0.344 | 0.694 | 0.975 |
| NCI-H661 | 0.955 | 0.931 | 0.797 | 0.55 | 0.518 | 0.374 | 0.302 | 0.294 | 0.276 | 0.234 | 1.01 | 0.947 | 0.92 | 0.671 | 0.688 | 0.704 | 0.67 | 0.46 | 1.08 | 0.607 |
| NCI-H727 | 0.848 | 0.823 | 0.783 | 0.523 | 0.518 | 0.533 | 0.56 | 0.509 | 0.363 | 0.305 | 1.04 | 0.637 | 0.925 | 0.684 | 0.554 | 0.498 | 0.545 | 0.478 | 0.917 | 0.542 |
| NCI-H838 | 0.962 | 0.797 | 0.654 | 1.06 | 0.962 | 0.765 | 0.512 | 0.722 | 0.445 | 0.309 | 1.03 | 1.11 | 0.933 | 0.823 | 0.388 | 0.423 | 0.388 | 0.328 | 0.959 | 0.917 |
| NCI-H1355 | 1.14 | 0.977 | 0.555 | 0.87 | 0.818 | 0.401 | 0.425 | 0.42 | 0.353 | 0.269 | 1.03 | 1 | 0.904 | 0.582 | 0.366 | 0.466 | 0.349 | 0.303 | 0.929 | 0.786 |
| NCI-H1437 | 0.831 | 0.772 | 0.344 | 0.968 | 0.897 | 0.468 | 0.289 | 0.309 | 0.29 | 0.171 | 1.27 | 1.21 | 0.924 | 0.425 | 0.862 | 0.851 | 0.647 | 0.434 | 0.9 | 0.982 |
| NCI-H1651 | 0.81 | 0.853 | 0.611 | 1.07 | 1.04 | 0.69 | 0.318 | 0.319 | 0.221 | 0.188 | 0.888 | 0.856 | 0.697 | 0.584 | 0.675 | 0.695 | 0.618 | 0.507 | 0.856 | 1 |

From the supplement of paper PMC10307832
